# Where two headings read alike, the source gives them in different places.
# Key:
# [1] = system: SOCE in human Jurkat T cells; assay: cells; assay type: cell-based
# Procedure: (§1) Jurkat T-lymphocytes, primary human CD4^+ T cells and H1299 cells were pelleted at 450 ×g for 5 min, rat TMBP at 300 ×g for 8 min at room temperature and were resuspended in 1 ml of either standard JMP medium (Jurkat, H1299 and human CD4^+ T cells) or standard DMEM based medium containing 10% fetal bovine serum (FBS) (v/v) (TMBP cells). Resting TMBP cells (day 5–7 after re-stimulation) after the second to fifth re-stimulation were thawed from liquid nitrogen 12 to 40 h prior to Fura2-loading. After pre-incubation for 5 min at 37 °C, cells were incubated with 4 μM Fura2-AM for 15 min at 37 °C. After addition of the dye, cells were kept in the dark. Afterwards, cells and the dye were diluted by addition of 4 ml standard medium and incubated for another 15 min. Cells were washed twice in Ca^2+ buffer (140 mM NaCl, 5 mM KCl, 1 mM MgSO4, 1 mM CaCl2, 1 mM NaH2PO4, 20 mM HEPES, 5.5 mM glucose; pH 7.4 (NaOH), sterile filtered) and were diluted to a concentration of 2*10^6 cells/ml. Subsequently, cells were kept at room temperature for 20 min for de-esterification before the start of the first measurement.
# (§2) In experiments using a Ca^2+ free/Ca^2+ re-addition protocol, cells were pelleted as described for Fura2 loading and Ca^2+ buffer was exchanged by 1 ml nominal Ca^2+ free buffer (140 mM NaCl, 5 mM KCl, 1 mM MgSO4, 1 mM NaH2PO4, 20 mM HEPES, 5.5 mM glucose; pH 7.4 (NaOH), sterile filtered) immediately before starting the measurement. The measurement was controlled by FL Solutions (Version 4.1, Hitachi High-Technologies Corporation). Fura2 was alternatively excited every 2 s at 340 ± 5 nm and 380 ± 5 nm, each 400 ms apart.
# Finally, every measurement was calibrated using 0.1% (v/v) Triton X-100 to obtain a maximal ratio and 4 mM EGTA and 30 mM Tris to obtain a minimal ratio.
# R is the ratio between F340 and F380. Rmin and Rmax are the minimal and maximal ratio, respectively, obtained by calibration. F380 min and F380 max are the minimal and maximal fluorescence intensity at 380 nm EX during the calibration. Finally, artefacts due to compound additions that usually could easily be identified and lasted about 8 s were deleted from the tracings using FL Solutions (Version 4.1, Hitachi High-Technologies Corporation). The fluorescence intensities of deleted data points were interpolated from those just before and after the deleted time points.
# Estradiol, 2ME2 and 2ME2 derivatives were dissolved in DMSO at a concentration of 50 mM and stored at −20 °C for up to 6 months. For concentration-response curves, stock solution was freshly diluted with DMSO to obtain the same DMSO concentration of 0.2% (v/v) for all conditions.
# The compound concentrations were then log transformed. Finally, the data were fitted to a corresponding nonlinear fit of variable slope using Prism 6 (GraphPad Software, USA).
# human PBMCs = assay: In vitro activation of human PBMCs by anti-CD3, interferon-γ mRNA by qPCR; assay type: cell-based; settings: human PBMC; anti-CD3 stimulation
# Procedure: In vitro activation assays were performed in 96-well plates. Briefly, 10^5 PBMCs isolated from human peripheral blood by Ficoll gradient were added onto plates coated with anti-human CD3 monoclonal antibody (5 μg ml^−1 in PBS, clone OKT3, Biolegend). 2ME2 or STX564 dissolved in DMSO were added in varying concentrations (0.01, 0.1, 1, 10 μM). […]. PBMC activation on mRNA level was determined using qPCR on samples collected 24 h after CD3 stimulation.
# (§3) Total RNA was isolated using the standard TRIzol method. cDNA was synthesized using the RevertAid First Strand cDNA Synthesis Kit (Thermo Fisher Scientific). Quantitative PCR (qPCR) was performed using the StepOnePlus™ Real-Time PCR System (Applied Biosystems), as previously described [[23], [24], [25]]. Rat TMBP cell data were obtained from three to four independent duplicate measurements. β-actin served as housekeeping gene. Human PBMC data were obtained from two independent healthy donors and duplicate measurements (representative data of one donor are shown). HPRT served as housekeeping gene. For all probes (TaqMan), a combination of 5′-FAM and 3′-TAMRA quencher was used as described.
# TMBP cells [2] = assay: In vitro activation of TMBP cells by MBP, CD25 surface expression by flow cytometry; assay type: cell-based, rat
# Procedure: (§4) In vitro activation assays were performed in 96-well plates. […]. TMBP cell activation on mRNA level was determined using qPCR and on surface protein level using surface marker staining and subsequent flow cytometry analysis.
# To assess in vitro T cell activation, surface staining for CD25 (OX39, Bio-Rad) was performed. APC-labelled goat anti-mouse antibody (Jackson ImmunoResearch) was used as secondary antibody. Mouse IgG1κ (MOPC 31C, Sigma-Aldrich) was used as control.
# Cytofluorometric analysis was carried out with a CytoFLEX S (Beckman Coulter) operated by CytExpert software (Beckman Coulter). All procedures were performed at 4 °C. Data were analyzed by using FlowJo software (FlowJo, LLC).
# TMBP cells [3] = assay: In vitro activation of TMBP cells by MBP, cytokine mRNA by qPCR; assay type: cell-based, rat; settings: TMBP cells + MBP; 6 h; qPCR
# Procedure: Myelin basic protein (MBP)-reactive CD4^+ T cells retrovirally transduced to express enhanced GFP (TMBP cells) were established as previously reported. In brief, 6–8 week old female Lewis rats were immunized subcutaneously with 150 μl of emulsion consisting of equal parts of MBP (stock concentration: 1 mg/ml) and complete Freund's adjuvant containing heat-inactivated Mycobacterium tuberculosis extract (Difco; stock concentration: 2 mg/ml). Draining lymph nodes were harvested and passed through a cell strainer (40 μm) 9–10 days after immunization. The cell suspension was co-cultured with GP + E86 packaging cell lines producing replication-deficient retroviruses in the presence of 10 μg/ml MBP. Murine IL-2 was added to the culture for T cell expansion from day 2–4 after stimulation. The cell lines underwent 3–4 cycles of stimulation before being used for in vitro and in vivo experiments. […] Upon stimulation, they produced interferon-γ and IL-17.
# as §4, §3
# SOCE in Jurkat T cells = assay: Inhibition during activated SOCE (thapsigargin or anti-CD3 OKT3, 1 mM extracellular Ca2+) in Jurkat T cells; assay type: cell-based, human; settings: Homo sapiens, Jurkat, Jurkat T cells stimulated by 1 μM thapsigargin (TG); 1 mM extracellular Ca2+; read-out: IC50 of SOCE inhibition during active SOCE
# Procedure: as §1
# as §2, with “10^6 Jurkat T-lymphocytes, H1299 cells, TMBP cells or 4*10^6 primary human CD4^+ T cells were added into a 10 × 10 mm quartz glass cuvette (Hellma Analytics, Germany) that was placed into a fluorescence spectrophotometer (F-2710, Hitachi, Japan). In” for “In”, “apart. Fluorescence intensity was measured at an emission wavelength of 495 ± 5 nm for both excitation wavelengths.” for “apart.”
# Finally, every measurement was calibrated using 0.1% (v/v) Triton X-100 to obtain a maximal ratio and 4 mM EGTA and 30 mM Tris to obtain a minimal ratio. […]
# Besides the Ca^2+ free/Ca^2+ re-addition protocol, we also characterized the effect of STX564 in cells during activated SOCE in the presence of thapsigargin (TG, Fig. 2A,B) or upon stimulation via their TCR/CD3 complex (Fig. 2C). […]. […] Similarly, in Fig. 2C this effect of a partial or full recovery of SOCE was also observed, a few minutes after STX564 addition.
# SERCA pumps = assay: SERCA activity (ATP-induced Ca2+ reuptake) in permeabilized Jurkat T cells; assay type: cell-based, human
# Procedure: (§5) 3 ∗ 10^7 Jurkat T-lymphocytes per measurement were centrifuged at 450 ×g for 5 min at room temperature. The pellet was rinsed twice, each time using 10 ml permeabilization buffer 1 (120 mM KCl, 10 mM NaCl, 1.2 mM MgCl2, 0.533 mM CaCl2, 1 mM EGTA and 10 mM HEPES, pH 7.2 (KOH), sterile filtered). Subsequently, the pellet was resuspended in 2 ml permeabilization buffer 1 containing 80 μg/ml saponin (Fluka) and the cells were incubated for 10 min at 37 °C. Subsequently, the cells were centrifuged at 450 ×g for 5 min at room temperature and the cell pellet was washed once in 10 ml permeabilization buffer 2 (120 mM KCl, 10 mM NaCl, 1.2 mM MgCl2 and 10 mM HEPES, pH 7.2 (KOH), sterile filtered). Finally, the cells were taken up in 1 ml permeabilization buffer 2, placed into a cuvette and measured at the fluorescence spectrophotometer. Before the start of the measurement, 0.5 μl of 1 mM Fura2 free acid (dissolved in pure water, final concentration: 0.5 μM), 5 μl of 5 mg/ml creatinkinase (dissolved in permeabilization buffer 2, final concentration: 25 μg/ml, 20 U/ml, Roche) and 10 μl of 2 M creatin phosphate (dissolved in permeabilization buffer 2, final concentration: 20 mM, Calbiochem) were added. Fura2 was used to measure the Ca^2+ concentration and creatinkinase and creatin phosphate were used as ATP-regenerating system. The measurement was controlled by FL Solutions (Version 4.1, Hitachi High-Technologies Corporation). Fura2 was alternatively excited every 2 s at 340 ± 5 nm and 380 ± 5 nm, each 400 ms apart. Fluorescence intensity was measured at an emission wavelength of 495 ± 5 nm for both excitation wavelengths. […] Ca^2+ concentrations were calculated according to Grynkiewicz et al. as described earlier in Section 2.4.
# (§6) As a quantitative read-out for inhibition of IP3 receptors, the peak [Ca^2+] after IP3 addition was subtracted from the mean [Ca^2+] between 25 and 75 s before IP3 addition (dPeak). […] The rate constant K of the fitted data was used as a quantitative read-out for SERCA pump activity and its inhibition.
# IP3 receptors = assay: IP3-evoked Ca2+ release in permeabilized Jurkat T cells; assay type: cell-based, human; settings: 2 μM IP3
# Procedure: as §5, §6
# [4] = Homo sapiens, Jurkat, Jurkat T cells, Ca2+ free/Ca2+ re-addition protocol, plateau 425-475 s after re-addition of 1 mM Ca2+, read-out: IC50 of SOCE inhibition
# [5] = Homo sapiens, Jurkat, read-out: IC50 of SOCE inhibition, Jurkat T cells, Ca2+ free/Ca2+ re-addition protocol, plateau 425-475 s after re-addition of 1 mM Ca2+
# [6] = Jurkat T cells, Ca2+ free/Ca2+ re-addition protocol, plateau 425-475 s after re-addition of 1 mM Ca2+, read-out: IC50 of SOCE inhibition
# [7] = Jurkat T cells, Ca2+ free/Ca2+ re-addition protocol
compound,measurement,setting,value
CCc1cc2c(cc1O)CCC1C2CCC2(C)C(C[N+](=O)[O-])CCC12 (centres unmarked) [STX1175],IC50,[1]; [4],1400 nM
"C[C@]12CC[C@@H]3c4ccc(O)cc4CC[C@H]3[C@@H]1CC[C@@H]2O [E2, estradiol]",IC50,[1]; [4],55000 nM
"COc1cc2c(cc1O)CC[C@@H]1[C@@H]2CC[C@]2(C)[C@@H](O)CC[C@@H]12 [2ME2, 2-Methoxyestradiol]",fold higher concentration necessary compared to STX564 for antagonist effect on interferon-γ expression,human PBMCs,approx. 10 fold
same,concentration at which up-regulation of CD25 was significantly reduced,TMBP cells [2],much higher concentration
same,concentration at which TCR/CD3-evoked pro-inflammatory cytokine expression was significantly reduced,TMBP cells [3],significantly higher concentrations
same,IC50,SOCE in Jurkat T cells,71000 nM
same,IC50,[1]; [4],20000 nM
same,fold higher potency compared to estradiol in inhibiting Ca2+ entry,"[1]; Jurkat T cells, SOCE",2.5 fold
COc1cc2c(cc1O)CCC1C2CCC2(C)C(CC#N)CCC12 (centres unmarked) [STX640],IC50,[1]; [5],2100 nM
same,fold more potent than the 17β-hydroxyl-compound (2ME2),"[1]; Jurkat T cells, SOCE",10 fold
CCc1cc2c(cc1OS(N)(=O)=O)CCC1C2CCC2(C)C(CC(C)=O)CCC12 (centres unmarked) [STX1307],IC50,[1]; [4],1100 nM
same,IC50,[1]; [6],~1000 nM
CCc1cc2c(cc1O)CCC1C2CCC2(C)C(CC(C)=O)CCC12 (centres unmarked) [STX1306],IC50,[1]; [4],1600 nM
COc1cc2c(cc1OS(N)(=O)=O)CCC1C2CCC2(C)C(O)CCC12 (centres unmarked) [STX68],IC50,"[1]; Homo sapiens, Jurkat, read-out: IC50 of SOCE inhibition",25000 nM
COc1cc2c(cc1OS(N)(=O)=O)CCC1C2CCC2(C)C(CC#N)CCC12 (centres unmarked) [STX641],IC50,[1]; [4],1700 nM
same,fold more potent than the 17β-hydroxyl-compound (2ME2),"[1]; Jurkat T cells, SOCE",10 fold
CCc1cc2c(cc1OS(N)(=O)=O)CCC1C2CCC2(C)C(OS(N)(=O)=O)CCC12 (centres unmarked) [STX243],IC50,[1]; [4],5200 nM
same,concentration giving almost complete inhibition of Ca2+ entry,[1]; [7],25 µM
same,IC50 fold smaller as compared to STX139,"[1]; Jurkat T cells, SOCE",approx. 2 fold
C/C=C(/C)C(=O)O[C@H]1C(C)=C2[C@H]([C@@H]1OC(=O)CCCCCCC)[C@@](C)(OC(C)=O)C[C@H](OC(=O)CCC)[C@@]1(O)[C@H]2OC(=O)[C@@]1(C)O [thapsigargin],effect on SERCA activity (initial slope of [Ca2+] upon ATP addition),SERCA pumps,almost completely abolished
same,effect on IP3-evoked Ca2+ release,IP3 receptors,eliminating effects of IP3
CCc1cc2c(cc1O)CCC1C2CCC2(C)C(CC#N)CCC12 (centres unmarked) [STX505],IC50,[1]; [5],1700 nM
CCc1cc2c(cc1OS(N)(=O)=O)CCC1C2CCC2(C)C(C[N+](=O)[O-])CCC12 (centres unmarked) [STX1177],IC50,[1]; [4],1300 nM
same,IC50,[1]; [6],~1000 nM
"CCc1cc2c(cc1O)CCC1C2CCC2(C)C(O)CCC12 (centres unmarked) [STX139, 2-ethyl-estradiol]",IC50,[1]; [4],~12000 nM
same,concentration giving almost complete inhibition of Ca2+ entry,[1]; [7],50 µM
